Reference: patent publication EP0913089A1, “Synergistic herbicidal composition containing R-imazethapyr and R-imazapyr and method for controlling weeds therewith” (American Cyanamid Company, priority 1997, dated 1999)

Tests used:
Test in all cases: Greenhouse postemergence weed control, visual rating (Example 1)
Set-up in all cases: scale not given here
Conditions in all cases: approx. 3 weeks after treatment
SETVI = assay type: in vivo, Setaria viridis, (L) Beauv
Description: (§1) In this evaluation, plants are grown in standard greenhouse soil for 10-14 days until they are at the 2-to 4-leaf stage. Said plants are then sprayed with an aqueous solution of the test compounds which contains 0.25% of a non-ionic surfactant and 1% of a 28-0-0 liquid fertilizer. Each treatment is replicated 3 to 4 times. Approximately 3 weeks after treatment visual ratings are made using the rating scale shown below. The data are averaged and shown on Table I. [table] [table]

AMBEL = assay type: in vivo, Ambrosia artemisiifolia, L.
Description: as §1

ABUTH = assay type: in vivo, Abutilon theophrasti, Medic.
Description: as §1

CHEAL = assay type: in vivo, Chenopodium album, L.
Description: as §1

CC(C)C1(C)N=C(c2ncccc2C(=O)O)NC1=O (racemic) [Imazapyr]
WEED CONTROL SETVI (SETVI; Rate 2.016 g/ha): 5.3 | WEED CONTROL SETVI (SETVI; Rate 4.00 g/ha): 6.8 | WEED CONTROL SETVI (SETVI; Rate 8.00 g/ha): 9.0 | WEED CONTROL SETVI (SETVI; Rate 16.00 g/ha): 9.0 | WEED CONTROL SETVI (SETVI; Rate 32.00 g/ha): 9.0 | WEED CONTROL SETVI (SETVI; Rate 48.00 g/ha): 9.0 | WEED CONTROL SETVI (SETVI; Rate 64.00 g/ha): 9.0 | WEED CONTROL AMBEL (AMBEL; Rate 2.016 g/ha): 2.5 | WEED CONTROL AMBEL (AMBEL; Rate 4.00 g/ha): 4.0 | WEED CONTROL AMBEL (AMBEL; Rate 8.00 g/ha): 5.0 | WEED CONTROL AMBEL (AMBEL; Rate 16.00 g/ha): 7.0 | WEED CONTROL AMBEL (AMBEL; Rate 32.00 g/ha): 7.8 | WEED CONTROL AMBEL (AMBEL; Rate 48.00 g/ha): 8.8 | WEED CONTROL AMBEL (AMBEL; Rate 64.00 g/ha): 8.8 | WEED CONTROL ABUTH (ABUTH; Rate 2.016 g/ha): 4.8 | WEED CONTROL ABUTH (ABUTH; Rate 4.00 g/ha): 6.3 | WEED CONTROL ABUTH (ABUTH; Rate 8.00 g/ha): 7.5 | WEED CONTROL ABUTH (ABUTH; Rate 16.00 g/ha): 8.5 | WEED CONTROL ABUTH (ABUTH; Rate 32.00 g/ha): 9.0 | WEED CONTROL ABUTH (ABUTH; Rate 48.00 g/ha): 9.0 | WEED CONTROL ABUTH (ABUTH; Rate 64.00 g/ha): 9.0 | WEED CONTROL CHEAL (CHEAL; Rate 2.016 g/ha): 6.3 | WEED CONTROL CHEAL (CHEAL; Rate 4.00 g/ha): 8.0 | WEED CONTROL CHEAL (CHEAL; Rate 8.00 g/ha): 8.8 | WEED CONTROL CHEAL (CHEAL; Rate 16.00 g/ha): 9.0 | WEED CONTROL CHEAL (CHEAL; Rate 32.00 g/ha): 9.0 | WEED CONTROL CHEAL (CHEAL; Rate 48.00 g/ha): 9.0 | WEED CONTROL CHEAL (CHEAL; Rate 64.00 g/ha): 9.0

CCc1cnc(C2=NC(C)(C(C)C)C(=O)N2)c(C(=O)O)c1 (racemic) [Imazethapyr]
WEED CONTROL SETVI (SETVI; Rate 4.00 g/ha): 3.5 | WEED CONTROL SETVI (SETVI; Rate 8.00 g/ha): 4.5 | WEED CONTROL SETVI (SETVI; Rate 16.00 g/ha): 4.3 | WEED CONTROL SETVI (SETVI; Rate 32.00 g/ha): 6.0 | WEED CONTROL SETVI (SETVI; Rate 64.00 g/ha): 7.5 | WEED CONTROL SETVI (SETVI; Rate 96.00 g/ha): 9.0 | WEED CONTROL SETVI (SETVI; Rate 128.00 g/ha): 9.0 | WEED CONTROL AMBEL (AMBEL; Rate 4.00 g/ha): 2.5 | WEED CONTROL AMBEL (AMBEL; Rate 8.00 g/ha): 2.8 | WEED CONTROL AMBEL (AMBEL; Rate 16.00 g/ha): 4.0 | WEED CONTROL AMBEL (AMBEL; Rate 32.00 g/ha): 6.0 | WEED CONTROL AMBEL (AMBEL; Rate 64.00 g/ha): 6.5 | WEED CONTROL AMBEL (AMBEL; Rate 96.00 g/ha): 7.5 | WEED CONTROL AMBEL (AMBEL; Rate 128.00 g/ha): 8.8 | WEED CONTROL ABUTH (ABUTH; Rate 4.00 g/ha): 2.5 | WEED CONTROL ABUTH (ABUTH; Rate 8.00 g/ha): 3.0 | WEED CONTROL ABUTH (ABUTH; Rate 16.00 g/ha): 4.0 | WEED CONTROL ABUTH (ABUTH; Rate 32.00 g/ha): 6.3 | WEED CONTROL ABUTH (ABUTH; Rate 64.00 g/ha): 6.3 | WEED CONTROL ABUTH (ABUTH; Rate 96.00 g/ha): 9.0 | WEED CONTROL ABUTH (ABUTH; Rate 128.00 g/ha): 9.0 | WEED CONTROL CHEAL (CHEAL; Rate 4.00 g/ha): 2.5 | WEED CONTROL CHEAL (CHEAL; Rate 8.00 g/ha): 2.3 | WEED CONTROL CHEAL (CHEAL; Rate 16.00 g/ha): 3.5 | WEED CONTROL CHEAL (CHEAL; Rate 32.00 g/ha): 7.0 | WEED CONTROL CHEAL (CHEAL; Rate 64.00 g/ha): 8.0 | WEED CONTROL CHEAL (CHEAL; Rate 96.00 g/ha): 9.0 | WEED CONTROL CHEAL (CHEAL; Rate 128.00 g/ha): 9.0

CC(C)[C@@]1(C)N=C(c2ncccc2C(=O)O)NC1=O [R-Imazapyr, R-imazapyr]
WEED CONTROL SETVI (SETVI; Rate 1.34 g/ha): 6.0 | WEED CONTROL SETVI (SETVI; Rate 2.68 g/ha): 7.5 | WEED CONTROL SETVI (SETVI; Rate 5.36 g/ha): 8.0 | WEED CONTROL SETVI (SETVI; Rate 10.72 g/ha): 9.0 | WEED CONTROL SETVI (SETVI; Rate 21.44 g/ha): 9.0 | WEED CONTROL SETVI (SETVI; Rate 32.16 g/ha): 9.0 | WEED CONTROL SETVI (SETVI; Rate 42.88 g/ha): 9.0 | WEED CONTROL AMBEL (AMBEL; Rate 1.34 g/ha): 1.5 | WEED CONTROL AMBEL (AMBEL; Rate 2.68 g/ha): 4.5 | WEED CONTROL AMBEL (AMBEL; Rate 5.36 g/ha): 5.0 | WEED CONTROL AMBEL (AMBEL; Rate 10.72 g/ha): 6.3 | WEED CONTROL AMBEL (AMBEL; Rate 21.44 g/ha): 7.5 | WEED CONTROL AMBEL (AMBEL; Rate 32.16 g/ha): 9.0 | WEED CONTROL AMBEL (AMBEL; Rate 42.88 g/ha): 8.5 | WEED CONTROL ABUTH (ABUTH; Rate 1.34 g/ha): 4.3 | WEED CONTROL ABUTH (ABUTH; Rate 2.68 g/ha): 5.8 | WEED CONTROL ABUTH (ABUTH; Rate 5.36 g/ha): 7.3 | WEED CONTROL ABUTH (ABUTH; Rate 10.72 g/ha): 8.0 | WEED CONTROL ABUTH (ABUTH; Rate 21.44 g/ha): 9.0 | WEED CONTROL ABUTH (ABUTH; Rate 32.16 g/ha): 9.0 | WEED CONTROL ABUTH (ABUTH; Rate 42.88 g/ha): 9.0 | WEED CONTROL CHEAL (CHEAL; Rate 1.34 g/ha): 7.3 | WEED CONTROL CHEAL (CHEAL; Rate 2.68 g/ha): 7.8 | WEED CONTROL CHEAL (CHEAL; Rate 5.36 g/ha): 8.3 | WEED CONTROL CHEAL (CHEAL; Rate 10.72 g/ha): 9.0 | WEED CONTROL CHEAL (CHEAL; Rate 21.44 g/ha): 9.0 | WEED CONTROL CHEAL (CHEAL; Rate 32.16 g/ha): 9.0 | WEED CONTROL CHEAL (CHEAL; Rate 42.88 g/ha): 9.0

CCc1cnc(C2=N[C@](C)(C(C)C)C(=O)N2)c(C(=O)O)c1 [R-Imazethapyr, R-imazethapyr]
WEED CONTROL SETVI (SETVI; Rate 2.68 g/ha): 4.8 | WEED CONTROL SETVI (SETVI; Rate 5.36 g/ha): 4.5 | WEED CONTROL SETVI (SETVI; Rate 10.72 g/ha): 5.5 | WEED CONTROL SETVI (SETVI; Rate 21.44 g/ha): 6.5 | WEED CONTROL SETVI (SETVI; Rate 42.88 g/ha): 7.5 | WEED CONTROL SETVI (SETVI; Rate 64.30 g/ha): 9.0 | WEED CONTROL SETVI (SETVI; Rate 85.76 g/ha): 9.0 | WEED CONTROL AMBEL (AMBEL; Rate 2.68 g/ha): 3.8 | WEED CONTROL AMBEL (AMBEL; Rate 5.36 g/ha): 3.5 | WEED CONTROL AMBEL (AMBEL; Rate 10.72 g/ha): 3.0 | WEED CONTROL AMBEL (AMBEL; Rate 21.44 g/ha): 4.8 | WEED CONTROL AMBEL (AMBEL; Rate 42.88 g/ha): 6.5 | WEED CONTROL AMBEL (AMBEL; Rate 64.30 g/ha): 8.8 | WEED CONTROL AMBEL (AMBEL; Rate 85.76 g/ha): 9.0 | WEED CONTROL ABUTH (ABUTH; Rate 2.68 g/ha): 4.8 | WEED CONTROL ABUTH (ABUTH; Rate 5.36 g/ha): 4.8 | WEED CONTROL ABUTH (ABUTH; Rate 10.72 g/ha): 4.8 | WEED CONTROL ABUTH (ABUTH; Rate 21.44 g/ha): 6.8 | WEED CONTROL ABUTH (ABUTH; Rate 42.88 g/ha): 7.0 | WEED CONTROL ABUTH (ABUTH; Rate 64.30 g/ha): 9.0 | WEED CONTROL ABUTH (ABUTH; Rate 85.76 g/ha): 9.0 | WEED CONTROL CHEAL (CHEAL; Rate 2.68 g/ha): 2.3 | WEED CONTROL CHEAL (CHEAL; Rate 5.36 g/ha): 3.8 | WEED CONTROL CHEAL (CHEAL; Rate 10.72 g/ha): 4.0 | WEED CONTROL CHEAL (CHEAL; Rate 21.44 g/ha): 6.8 | WEED CONTROL CHEAL (CHEAL; Rate 42.88 g/ha): 7.0 | WEED CONTROL CHEAL (CHEAL; Rate 64.30 g/ha): 9.0 | WEED CONTROL CHEAL (CHEAL; Rate 85.76 g/ha): 9.0
